Here are results for six molecules from patent publication US20250262192A1, “PROGNOSTIC PATHWAYS FOR HIGH RISK SEPSIS PATIENTS” (KONINKLIJKE PHILIPS N.V., priority 2021, published 2025).

Several values for one entry are separate records, joined by “and”; a condition that tells them apart may be missing. Equal entries are not always repeated.

Experiment [1] relates to AR cellular signaling pathway. Briefly: THP-1 cells cultured 24 hrs with LPS, then DHT or AR inhibitor (FIG. 35, Table 7); pathway analysis. Format: cell-based. Here is the method:
(§1) FIG. 35 Schematic overview of AR inhibitor experiment. Depicts the experimental setup to determine if AR inhibitors can be used to mitigate the effect of LPS on monocytes (THP-1 cells). […] In a parallel experiment, THP-1 cells are first cultured for 24 hours with LPS, after which the medium is changed and the cells are cultured with one of ARCC-4, ARD-266, A-458 and bicalutamide.
(§2) FIG. 35 describes the experimental set-up used. […] In a parallel experiment, THP-1 cells are first cultured for 24 hours with LPS, after which the medium is changed and the cells are cultured with one of ARCC-4, ARD-266, A-458 and bicalutamide.
All experimental conditions were subjected to cellular signaling pathways analysis.

The test system of experiment [2] is TGFbeta cellular signaling pathway. Described as above. Format: cell-based. Here is the method:
as §1, §2
As expected the remaining AR inhibitors were not able to mitigate the effect of LPS on TGFbeta cellular signaling pathway activity.
AR and TGFbeta pathways are functional in monocytic cells (Table 7).

Experiment [3] deals with AR pathway. Nature of the experiment: PBMCs of sepsis patients treated in vitro 24 hours with inhibitors, pathway activity score. Details: AR Pathway activity scores of sepsis PBMC patients: scale not given here. Format: cell-based, human. As to conditions: EXP 2, individual patient samples, Resatorvid 10 uM, D4-abiraterone 10 uM, A-485 100 nM, Galunisertib 10 uM. Here is the method:
(§3) PBMC samples from healthy volunteers and sepsis patients were obtained via Tissue solutions. Briefly, cryopreserved PBMCs were first washed with washing buffer (PBS/1% BSA/2 mM EDTA), centrifuged and pellet resuspended in culture medium (RPM11640 without phenol red+8.5% charcoal stripped FBS+1% Glx+1% p/s). 0.5·10^5-1·10^6 cells were seeded per well in 24 wells plate and rested for 1 hour before treatment experiment. 10 PBMC samples from healthy donors were used to; (1) measure the baseline pathway levels, (2) activate with LPS
(§4) Sepsis treatment model: PBMC derived from sepsis patients (n=20) were treated 24 hours with compounds, DMSO or combination of compounds. (PBMC from healthy and sepsis patients are originating from the same hospital to minimize bias in sample prep). After stimulation cells were harvested and RNA was extracted using the RNeasy mini kit (Qiagen, 74104). qPCR was performed using the Philips Research OncoSignal platform.
(§5) In total 18 PBMCs sepsis samples were treated for 24 hours with selected inhibitors (and combinations), 6 patient samples per experiment.

Experiment [4] relates to TGFbeta pathway. The description is as above. Format: cell-based, human. Details: scale not given here. As to conditions: EXP 2, individual patient samples, Resatorvid 10 uM, D4-abiraterone 10 uM, A-485 100 nM, Galunisertib 10 uM. Here is the method:
as §3, §4, §5

Experiment [5] concerns AR cellular signaling pathway. Nature of the experiment: THP-1 sepsis prevention model, qPCR-based STP activity score. Format: cell-based.
For experiment [6], the system named is TGFbeta cellular signaling pathway. The experiment is described as above. Format: cell-based.
Experiment [7] has as its system AR pathway. Briefly: THP-1 cell line stimulated with LPS or DHT and inhibited with Bicalutamide or Enzalutamide (Table 9A). Format: cell-based. Here is the method:
(§6) LPS is considered the main mediator of the sepsis symptoms. An in vitro experiment was designed where monocytes were stimulated with LPS and subsequently treated with a variety of inhibitors. […] 26 Aug.
(§7) After stimulation cells were harvested and RNA was extracted using the RNeasy mini kit (Qiagen, 74104). qPCR-based STP activity scores were calculated using the Philips Research OncoSignal platform (www.philips.com/oncosignal), as described herein.

Experiment [8] deals with TGFBeta pathway. The experiment is described as above. Format: cell-based. Here is the method:
as §6, §7

Experiment [9] concerns AR pathway. Nature of the experiment: MOLT-4 lymphoid cell line stimulated with LPS or DHT and inhibited with Bicalutamide or Enzalutamide (Table 9B). Format: cell-based. As to conditions: stimulated 5 hours and subsequently inhibited. Here is the method: (§8) MOLT-4 (ATCC CRL-1582) were cultured in RPMI1640 media, supplemented with 10% FBS, 1% glutamax and 1% pen strep at 37° C. 5% CO2.
as §7

Experiment [10] deals with TGFBeta pathway. The description is as above. Format: cell-based. Here is the method: as §8, §7
The subject of experiment [11] is ER cellular signaling pathway. Format: cell-based. Here is the method: as §1, §2
Experiment [12] deals with HH (Hedgehog) cellular signaling pathway. Format: cell-based. Here is the method:
as §1, §2

The mark [13] stands for this setting: THP-1, 24 hours LPS, medium changed, then inhibitor.
[14] abbreviates: 24 hrs 25 uM Bicalutamide or DMSO, then 24 hrs DHT.
Setting [15] is: 24 hrs 25 uM Bicalutamide or DMSO, then 24 hrs LPS.
[16] abbreviates: 24 hrs 25 uM Bicalutamide, then 24 hrs PBS.
The mark [17] stands for this setting: THP-1, DHT (25 nM) alone or + Bicalutamide (5 uM) or Enzalutamide (5 uM), stimulated 5 hours and subsequently inhibited.
Where [18] appears, read: THP-1, LPS (50 ng/mL) alone or + Bicalutamide (5 uM) or Enzalutamide (5 uM), stimulated 5 hours and subsequently inhibited.
The mark [19] stands for this setting: DHT (25 nM) alone or + Bicalutamide (5 uM) or Enzalutamide (5 uM).
Setting [20] is: LPS (50 ng/mL) alone or + Bicalutamide (5 uM) or Enzalutamide (5 uM).
Where [21] appears, read: MOLT-4, DHT (25 nM) alone or + Bicalutamide (5 uM) or Enzalutamide (5 uM), stimulated 5 hours and subsequently inhibited.
Where [22] appears, read: MOLT-4, LPS (50 ng/mL) alone or + Bicalutamide (5 uM) or Enzalutamide (5 uM), stimulated 5 hours and subsequently inhibited.

Regarding `CNC(=O)Nc1ccc2c(c1)CC[C@@]21OC(=O)N(CC(=O)N(Cc2ccc(F)cc2)[C@@H](C)C(F)(F)F)C1=O` [A-485], the “LPS induced AR activity after addition of inhibitor (FIG. 36)” value in experiment [1] (setting [13]) is on record as “reduction of AR activity”. Moreover, the “LPS induced TGFbeta activity after addition of inhibitor (FIG. 39)” value in experiment [2] (setting [13]) was “reduction of LPS induced TGFbeta activity”. Besides, the “AR Pathway activity scores of sepsis PBMC patients” value in experiment [3] is 24 and 27 and 25. Moreover, the “TGFbeta Pathway activity scores of sepsis PBMC patients” value in experiment [4] is 28 and 33 and 35.
On to `CC(O)(CS(=O)(=O)c1ccc(F)cc1)C(=O)Nc1ccc(C#N)c(C(F)(F)F)c1` (centres unmarked) [Bicalutamide], for which the “Average AR STP score” value in [5] (setting [14]) is recorded as 3.17 normalized scores; in experiment [5] (setting [15]), 12.93 normalized scores; in [5] (setting [16]), 2.63 normalized scores. Moreover, the “Average TGFbeta STP score” value in [6] (setting [14]) is on record as 1.04 normalized scores; in [6] (setting [15]) it was 9.78 normalized scores; in experiment [6] (setting [16]), 1.25 normalized scores. For the same molecule, the “AR STP activity” value in [7] (setting [17]) worked out at 6.7 normalized scores; in experiment [7] (setting [18]) it was 20.2 normalized scores; in experiment [9] (setting [19]), 7.4 normalized scores; in experiment [9] (setting [20]) it was 7.2 normalized scores. For the same molecule, the “TGFbeta STP activity” value in experiment [8] (setting [17]) was found to be 15.6 normalized scores; in experiment [8] (setting [18]), 34.6 normalized scores; in [10] (setting [21]) it was 13.9 normalized scores; in experiment [10] (setting [22]), 14.1 normalized scores.
For the molecule `C[C@]12CCC(=O)C[C@@H]1CC[C@@H]1[C@@H]2CC[C@]2(C)[C@@H](O)CC[C@@H]12` [DHT, dihydrotestosterone], the “AR cellular signaling pathway activity, effect of stimulus (FIG. 36)” value in experiment [1] was “increase”. Besides, in experiment [2], the “TGFbeta signaling activity, effect of stimulus (FIG. 39)” value is “did not increase”. The “ER cellular signaling pathway activity (FIG. 37)” value in experiment [11] is reported as “not substantially affected”. In addition, the “HH cellular signaling pathway activity (FIG. 38)” value in experiment [12] is given as “not substantially affected”. The “Average AR STP score” value in [5] (setting [14]) was determined as 6.13 normalized scores. In addition, in experiment [6] (setting [14]), the “Average TGFbeta STP score” value was determined as 1.27 normalized scores. Besides, the “AR STP activity” value is 8.7 normalized scores in experiment [7] and 7.5 normalized scores in experiment [9] (setting [19]). Besides, the “TGFbeta STP activity” value in experiment [8] is 12.9 normalized scores; in experiment [10], 14.1 normalized scores.
`CNC(=O)c1ccc(N2C(=S)N(c3ccc(C#N)c(C(F)(F)F)c3)C(=O)C2(C)C)cc1F` [Enzalutamide]: the “AR STP activity” value amounted to 6.0 normalized scores in experiment [7] (setting [17]), 20.4 normalized scores in [7] (setting [18]), 7.3 normalized scores in experiment [9] (setting [19]) and 6.3 normalized scores in [9] (setting [20]). The “TGFbeta STP activity” value in experiment [8] (setting [17]) is 17.3 normalized scores; in experiment [8] (setting [18]), 33.6 normalized scores; in experiment [10] (setting [21]) it was 14.1 normalized scores; in [10] (setting [22]) it was 14.1 normalized scores.
Regarding `C[C@]12CC[C@H]3[C@@H](CCC4=CC(=O)CC[C@@]43C)[C@@H]1CC[C@@H]2O` [Testosterone], the “AR pathway activity, ligand stimulation” value in [1] (THP-1 cells) was “induced activity”.
With “TGFbeta: original ligand for the TGFbeta STP added to monocytic cells”, the “TGFbeta pathway activity, ligand stimulation” value in experiment [2] (monocytic cells (THP-1)) was “induced activity”.
